The source of these data is US10815237B2, “Antimicrobials and methods of making and using same” (BIOVERSYS AG, priority 2016, dated 2020).

The test system of assay [1] is Chinese hamster ovary (CHO) cells. As to the kind of experiment: cytotoxicity against CHO cell line (Cell Titer Blue). In kind it is cell-based. The following applies: CHO-K1 cells, 24 hours incubation, percent cell kill. Here is the method: The compounds of the present disclosure were tested for cytotoxicity against Chinese hamster ovary (CHO) cells.
The assay was performed by seeding CHO—K1 in F12K medium containing 13.33% Fetal Bovine Serum […]. 37.5 μl of cell suspension at a concentration of 9,500 cells/well was plated into each column of a 384-well black clear bottom assay plate with the exception of a negative (no cell) control column, and allowed to adhere for 2 hours. The culture media was then removed from the 175 cm^2 flask(s) and the cell monolayer washed with 10 mL of Phosphate Buffered Saline PBS. 3 mL of Cellstripper™ was then added and the flask was incubated for approximately 5 min at 37° C. The cells were dissociated by agitation and 7 mL of F 12K medium containing 10% FBS was added to the flask. A homogeneous cell suspension was obtained by trituration of the flask. The cells were counted with a hemocytometer by diluting an aliquot of the cell suspension in PBS with 0.4% trypan blue. Typically, a ratio of 100 μl cell suspension to 1800 μl PBS to 100 μl trypan blue was used.
The volume of cell suspension containing the number of cells needed to seed the plate(s) (15.2 mL containing 3.8×10^6 cells) was calculated and transferred to a 50 mL centrifuge tube with the appropriate volume of media. 37.5 μl of cells were added to each well of the 384 well plate except for the negative (no cell) control column. A cytotoxicity 100-fold dilution plate was then prepared by manually pipetting 18 μl of 100% DMSO into two columns of an empty low volume dilution plate. 2 μl of a 50 mM solution of compounds 1-23 from the translation plate were manually pipetted into the corresponding columns of the 100-fold dilution plate. 10 μl of 100% DMSO was manually pipetted into all remaining columns of the 100-fold plate.
A 4-fold cytotoxicity plate was prepared beforehand by manually pipetting 48 μl of F12K media (without DMSO and without FBS) into each well of a matrix 384 well plate. The test samples in the 100-fold dilution plate were mixed and diluted. Ten 2-fold dilutions were performed for each compound in duplicate. The 384 cannula array then transferred 2 μl to the 48 μl of media in the cytotoxicity 4-fold dilution plate. The array was then mixed and 12.5 μl of samples from the cytotoxicity 4-fold dilution plate were transferred to the 37.5 μl of cells and media. The final top concentration of samples at this point in the procedure was 50 μM with 10 subsequent 1:2 dilutions down to […]. The final DMSO concentration were 1% and the final concentration of FBS was 10%.
Cycloheximide was run as a control. Specifically, Cycloheximide was diluted to 0.1 mM from 100 mM stock […] and was added to the cytotoxicity 100-fold plate. Upon addition to the cell plate, a range of 1 μM to 1 nM of cycloheximide was run.
A column separate from the one (referred to above) that served as the negative control was used for cell control wells to which only media was added.
The plates were then incubated for 24 hours at 37° C. and 5% CO2. […] The two columns used earlier to prepare the 100-fold dilution plate by pipetting 18 μl of 100% DMSO contained the samples tested at 200 μM. After the 24 hour incubation period, the 4 μl of Cell Titer blue was added to each well using a Multichannel Matrix pipettor. The plates were returned to the incubator and incubated for an additional 5 hours. Fluorescence (530 nm excitation wavelength/590 nm emission wavelength) was measured on a Wallac Victor microplate reader.
Cell viability was assessed fluorometrically after a 5 hour incubation with resazurin (Cell Titer Blue™), which is reduced by living cells to the fluorescent resorufin.
The average fluorescence for the negative control was determined to obtain the average blank fluorescence. The average blank fluorescence was subtracted from the fluorescence values obtained for all the test agents. The resulting values are the corrected fluorescence. […]

For assay [2], the system named is Staphylococcus aureus (S. aureus) 11540 strain. Briefly: standard microdilution MIC, S. aureus. In kind it is cell-based. The following applies: for MIC: Staphylococcus aureus. Here is the method: (§1) The in vitro activity of the compounds of the present disclosure can be determined. Antimicrobial testing is typically performed to determine the minimum inhibitory concentration (MIC). Minimum inhibitory concentrations (MICs) are determined by the microdilution method in a final volume of 100 μl according to protocols outlined by The Clinical and Laboratory Standards Institute (CLSI). Performance standards for reference strains are assessed within the same experimental design to maintain quality control. See, for example, Clinical Laboratory Standards Institute: Methods for dilution antimicrobial susceptibility tests for bacteria that grow aerobically M7-A8. Approved Standard-Eighth Edition. Wayne, Pa.: CLSI; December 2008; and Clinical Laboratory Standards Institute: Performance Standards for Antimicrobial Susceptibility Testing M100-S20; Approved Standard-Twentieth Edition. Wayne, Pa.: CLSI; June 2010.
(§2) The compounds of the present disclosure were tested for antimicrobial activity. The Compounds 1-23 were run against Eschericia coli (E. coli) strain ATCC25922 and against Staphylococcus aureus (S. aureus) 11540 strain using a standard microdilution assay to determine minimum inhibitory concentrations (MICs). […] It will be recognized by one skilled in the art that the compounds can be assessed against other bacterial organisms and that the presentation of data for activity against Eschericia coli and Staphylococcus aureus are illustrative and in no way is intended to limit the scope of the present disclosure. The compounds of the present disclosure can be assayed against a range of other microorganisms depending upon the performance activity desired to be gathered. Furthermore, the “+” and “−” representation and the selection of a cutoff value of 16 micrograms/mL is also illustrative and in no way is intended to limit the scope of the present disclosure.
In general terms: Broth dilution looks for growth in wells or tubes with falling amounts of substance.

For assay [3], the system named is Eschericia coli (E. coli) strain ATCC25922. As to the kind of experiment: standard microdilution MIC, E. coli. In kind it is cell-based, Escherichia coli. The following applies: for MIC: Escherichia coli. Here is the method:
as §1, §2

A word on the IC50: it is the concentration that gives 50% inhibition. The low end stands for greater potency, the high end for weaker potency. Turning to `C=C[C@@H](CCNC(=N)CN1CCOCC1)NCc1ccc(-n2cc3cc(-c4cc(CCC[C@H](C)N)cc(Cl)c4F)[nH]c3nc2=O)cc1` [Compound 1], the half-maximal inhibitory concentration (IC50) in assay [1] (Cricetulus griseus, 24 h) was above 100 µM.
The term MIC denotes the lowest concentration found to suppress growth. As to `C=C[C@H](CCNC(=N)CN1CCSCC1)NCc1ccc(-n2cc3cc(-c4cc(CCC[C@H](C)N)cc(Cl)c4F)[nH]c3nc2=O)cc1` [Compound 3], the MIC in assay [2] and in assay [3] was at most 16 µg/mL in each case. In assay [1] (Cricetulus griseus, 24 h), the IC50 is above 100 µM.
Take `C[C@H](N)CCCc1cc(Cl)c(F)c(-c2cc3cn(-c4ccc(CN[C@@H](CO)CCNC(=N)CN5CCSCC5)cc4)c(=O)nc3[nH]2)c1` [Compound 4]: the MIC in assay [2] and in assay [3] was at most 16 µg/mL each time. The IC50 in assay [1] (Cricetulus griseus, 24 h) is above 100 µM.
`C=C[C@@H](CCNC(=N)CN1CC[C@H](F)C1)NCc1ccc(-n2cc3cc(-c4cc(CCC[C@H](C)N)cc(Cl)c4F)[nH]c3nc2=O)cc1` [Compound 5]: the MIC in assay [2] and in assay [3] was at most 16 µg/mL each time. This compound yielded an IC50 in assay [1] (Cricetulus griseus, 24 h) above 100 µM.
For `C=C[C@@H](CCNC(=N)CN1CCOCC1)NCc1ccc(-n2cc3cc(-c4cc(CCC[C@H](C)N)cc(Cl)c4F)[nH]c3nc2=O)cc1` [Compound 6], the MIC in assay [2] and in assay [3] was at most 16 µg/mL throughout.
Turning to `C=C[C@@H](CCNC(=N)CN1CCSCC1)NCc1ccc(-n2cc3cc(-c4cc(CCC[C@H](C)N)cc(Cl)c4F)[nH]c3nc2=O)cc1` [Compound 7], the MIC in assay [2] and in assay [3] was at most 16 µg/mL in each case. In assay [1] (Cricetulus griseus, 24 h), the IC50 is above 100 µM.
For the compound `C[C@H](N)CCCc1cc(Cl)c(F)c(-c2cc3cn(-c4ccc([C@H](C)NCCCNC(=N)CN)cc4)c(=O)nc3[nH]2)c1` [Compound 9], the MIC in assay [2] and in assay [3] was at most 16 µg/mL throughout. The same compound showed an IC50 in assay [1] (Cricetulus griseus, 24 h) above 100 µM.
Consider `CSc1cc(-n2cc3cc(-c4cc(CCC[C@H](C)N)cc(Cl)c4F)[nH]c3nc2=O)ccc1[C@@H]1CCC[C@@H](CCNC(=N)CN)N1` [Compound 10], for which the MIC in assay [2] and in assay [3] was at most 16 µg/mL in each case. In assay [1] (Cricetulus griseus, 24 h), this compound yielded an IC50 above 100 µM.
On to `COC[C@H](N)CCCc1cc(OC(F)(F)F)c(F)c(-c2cc3cn(-c4ccc([C@@H]5CCC[C@@H](CCNC(=N)CN)N5)cc4)c(=O)nc3[nH]2)c1` [Compound 11], for which the MIC in assay [2] and in assay [3] was at most 16 µg/mL each time. The same compound yielded an IC50 in assay [1] (Cricetulus griseus, 24 h) above 100 µM.
`N=C(CN)NCC[C@@H]1CCC[C@@H](c2ccc(-n3cc4cc(-c5cc(CCC[C@@H](N)C6CC6)cc(Cl)c5F)[nH]c4nc3=O)cc2)N1` [Compound 12]: the MIC in assay [2] and in assay [3] was at most 16 µg/mL each time. In assay [1] (Cricetulus griseus, 24 h), the IC50 is above 100 µM.
In the case of `C[C@H](N)CCCc1cc(Cl)c(F)c(-c2cc3cn(-c4ccc([C@@H]5CCC[C@@H](CCNC(=N)CN)N5)c(F)c4)c(=O)nc3[nH]2)c1` [Compound 13], the MIC in assay [2] and in assay [3] was at most 16 µg/mL in each case. The same compound came in with an IC50 in assay [1] (Cricetulus griseus, 24 h) above 100 µM.
`C[C@H](N)CCCc1cc(Cl)c(F)c(-c2cc3cn(-c4ccc([C@@H]5CCC[C@@H](CCNC(=N)CN)N5)cc4)c(=O)nc3[nH]2)c1` [Compound 14]: the “MIC S. aureus” value in assay [2] is listed as “+ (the compound has an MIC value of 16 micrograms/mL or less)”. For the same compound, in assay [1], the IC50 is above 100 µM. The “MIC E.coli” value in assay [3] is “+ (the compound has an MIC value of 16 micrograms/mL or less)”.
As for `C[C@H](N)CCCc1cc(Cl)c(F)c(-c2cc3cn(-c4cc(F)c([C@@H]5CCC[C@@H](CCNC(=N)CN)N5)c(F)c4)c(=O)nc3[nH]2)c1` [Compound 15], the MIC in assay [2] and in assay [3] was at most 16 µg/mL each time. Moreover, in assay [1] (Cricetulus griseus, 24 h), the half-inhibitory concentration (IC50) is above 100 µM.
As to `N=C(CN)NCC[C@@H]1CCC[C@@H](c2ccc(-n3cc4cc(-c5cc(CCC[C@@H](N)CO)cc(Cl)c5F)[nH]c4nc3=O)cc2)N1` [Compound 16], the MIC in assay [2] and in assay [3] was at most 16 µg/mL throughout. In addition, the IC50 in assay [1] (Cricetulus griseus, 24 h) is 50.9 µM.
With `C[C@H](N)CCCc1cc(-c2cc3cn(-c4ccc([C@@H]5CCC[C@@H](CCNC(=N)CN)N5)cc4)c(=O)nc3[nH]2)cc(C(F)(F)F)c1` [Compound 17], the MIC in assay [2] and in assay [3] was at most 16 µg/mL each time. In assay [1] (Cricetulus griseus, 24 h), this compound came in with an IC50 above 100 µM.
Regarding `CN=C(CN)NCC[C@@H]1CCC[C@@H](c2ccc(-n3cc4cc(-c5cc(CCC[C@H](C)N)cc(Cl)c5F)[nH]c4nc3=O)cc2)N1` [Compound 18], the MIC in assay [2] and in assay [3] was at most 16 µg/mL throughout. The compound also registered an IC50 in assay [1] (Cricetulus griseus, 24 h) above 100 µM.
For the compound `CSC[C@H](N)CCCc1cc(Cl)c(F)c(-c2cc3cn(-c4ccc([C@@H]5CCC[C@@H](CCNC(=N)CN)N5)cc4)c(=O)nc3[nH]2)c1` [Compound 19], the MIC in assay [2] and in assay [3] was at most 16 µg/mL in each case. This compound had an IC50 in assay [1] (Cricetulus griseus, 24 h) above 100 µM.
On to `C[C@H](N)CCCc1cc(Cl)c(F)c(-c2cc3cn(-c4ccc([C@@H]5CCC[C@@H](CCNC(=N)CN)N5CCCF)cc4)c(=O)nc3[nH]2)c1` [Compound 20], for which the MIC in assay [2] and in assay [3] was at most 16 µg/mL throughout. Further, the IC50 in assay [1] (Cricetulus griseus, 24 h) was above 100 µM.
As to `C[C@H](N)CCCc1cc(-c2cc3cn(-c4ccc([C@@H]5CCC[C@@H](CCNC(=N)CN)N5)cc4)c(=O)nc3[nH]2)ccc1C(F)(F)F` [Compound 21], the MIC in assay [2] and in assay [3] was at most 16 µg/mL throughout. This compound displayed an IC50 in assay [1] (Cricetulus griseus, 24 h) above 100 µM.
For `CSc1cc(-n2cc3cc(-c4cc(CCC[C@H](C)N)cc(C(F)(F)F)c4)[nH]c3nc2=O)ccc1[C@@H]1CCC[C@@H](CCNC(=N)CN)N1CCCF` [Compound 22], the MIC in assay [2] and in assay [3] was at most 16 µg/mL throughout. This compound had an IC50 in assay [1] (Cricetulus griseus, 24 h) above 100 µM.
`C[C@H](N)CCCc1cc(-c2cc3cn(-c4ccc([C@@H]5CCC[C@@H](CCNC(=N)CN)N5CCCF)cc4)c(=O)nc3[nH]2)cc(C(F)(F)F)c1` [Compound 23]: the MIC in assay [2] and in assay [3] was at most 16 µg/mL in each case. The compound further came in with an IC50 in assay [1] (Cricetulus griseus, 24 h) above 100 µM.
For the compound `N=C(CN)NCC[C@@H]1CCC[C@@H](c2ccc(-n3cc4cc(-c5cc(CCC[C@@H](N)C6CC6)cc(C(F)(F)F)c5)[nH]c4nc3=O)cc2)N1CCCF` [Compound 42], the MIC in assay [2] and in assay [3] was at most 16 µg/mL throughout. The compound also showed an IC50 in assay [1] (Cricetulus griseus, 24 h) above 100 µM.
`N=C(CN)NCC[C@@H]1CCC[C@@H](c2ccc(-n3cc4cc(-c5cc(CCC[C@@H](N)C6CC6)cc(C(F)(F)F)c5)[nH]c4nc3=O)cc2F)N1CCCF` [Compound 43]: the MIC in assay [2] and in assay [3] was at most 16 µg/mL in each case. The compound also displayed an IC50 in assay [1] (Cricetulus griseus, 24 h) above 100 µM.
